Data reported in the supplement of paper PMC10307832.

Experiments:
Assay in all cases: relative viability (nuclei count vs DMSO), 5 days (fraction); higher = more cells survive
Omipalisib + Olaparib = compound: COc1ncc(-c2ccc3nccc(-c4ccnnc4)c3c2)cc1NS(=O)(=O)c1ccc(F)cc1F [Omipalisib] + O=C(c1cc(Cc2n[nH]c(=O)c3ccccc23)ccc1F)N1CCN(C(=O)C2CC2)CC1 [Olaparib] (partner 8 µM)
Method in brief: (§1)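 A single step with final 0.05% Triton X-100, 1% formaldehyde and 1 ug/ml Hoechst fixed the cells and stained nuclei 5 days after treatment. Lung cancer cell lines in 1536-well plates had been treated by pin tool the day after seeding with one drug alone or a fixed anchor-drug dose plus five library-drug doses (not always all listed) in √10 steps, and nuclei were counted on 4× images. Relative viability is the ratio of nuclei in treated wells to nuclei in vehicle wells, taken as the median of duplicate plates.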

Omipalisib + Pictilisib = compound: COc1ncc(-c2ccc3nccc(-c4ccnnc4)c3c2)cc1NS(=O)(=O)c1ccc(F)cc1F [Omipalisib] + CS(=O)(=O)N1CCN(Cc2cc3nc(-c4cccc5[nH]ncc45)nc(N4CCOCC4)c3s2)CC1 [Pictilisib] (partner 1 µM)
Method in brief: as §1

Omipalisib + Lapatinib = compound: COc1ncc(-c2ccc3nccc(-c4ccnnc4)c3c2)cc1NS(=O)(=O)c1ccc(F)cc1F [Omipalisib] + CS(=O)(=O)CCNCc1ccc(-c2ccc3ncnc(Nc4ccc(OCc5cccc(F)c5)c(Cl)c4)c3c2)o1 [Lapatinib] (partner 2 µM)
Method in brief: as §1

Omipalisib + Foretinib = compound: COc1ncc(-c2ccc3nccc(-c4ccnnc4)c3c2)cc1NS(=O)(=O)c1ccc(F)cc1F [Omipalisib] + COc1cc2c(Oc3ccc(NC(=O)C4(C(=O)Nc5ccc(F)cc5)CC4)cc3F)ccnc2cc1OCCCN1CCOCC1 [Foretinib] (partner 0.25 µM)
Method in brief: as §1

Omipalisib + Linsitinib = compound: COc1ncc(-c2ccc3nccc(-c4ccnnc4)c3c2)cc1NS(=O)(=O)c1ccc(F)cc1F [Omipalisib] + C[C@]1(O)C[C@@H](c2nc(-c3ccc4ccc(-c5ccccc5)nc4c3)c3c(N)nccn32)C1 [Linsitinib] (partner 1 µM)
Method in brief: as §1

Omipalisib + Phenformin = compound: COc1ncc(-c2ccc3nccc(-c4ccnnc4)c3c2)cc1NS(=O)(=O)c1ccc(F)cc1F [Omipalisib] + N=C(N)NC(=N)NCCc1ccccc1 [Phenformin] (partner 250 µM)
Method in brief: as §1

Omipalisib + Crizotinib = compound: COc1ncc(-c2ccc3nccc(-c4ccnnc4)c3c2)cc1NS(=O)(=O)c1ccc(F)cc1F [Omipalisib] + C[C@@H](Oc1cc(-c2cnn(C3CCNCC3)c2)cnc1N)c1c(Cl)ccc(F)c1Cl [Crizotinib] (partner 1 µM)
Method in brief: as §1

Omipalisib + Navitoclax = compound: COc1ncc(-c2ccc3nccc(-c4ccnnc4)c3c2)cc1NS(=O)(=O)c1ccc(F)cc1F [Omipalisib] + CC1(C)CCC(c2ccc(Cl)cc2)=C(CN2CCN(c3ccc(C(=O)NS(=O)(=O)c4ccc(N[C@H](CCN5CCOCC5)CSc5ccccc5)c(S(=O)(=O)C(F)(F)F)c4)cc3)CC2)C1 [Navitoclax] (partner 0.5 µM)
Method in brief: as §1

Omipalisib + Alpelisib = compound: COc1ncc(-c2ccc3nccc(-c4ccnnc4)c3c2)cc1NS(=O)(=O)c1ccc(F)cc1F [Omipalisib] + Cc1nc(NC(=O)N2CCC[C@H]2C(N)=O)sc1-c1ccnc(C(C)(C)C(F)(F)F)c1 [Alpelisib] (partner 2 µM)
Method in brief: as §1

Omipalisib + Decitabine = compound: COc1ncc(-c2ccc3nccc(-c4ccnnc4)c3c2)cc1NS(=O)(=O)c1ccc(F)cc1F [Omipalisib] + Nc1ncn([C@H]2C[C@H](O)[C@@H](CO)O2)c(=O)n1 [Decitabine] (partner 2 µM)
Method in brief: as §1

Omipalisib = compound: COc1ncc(-c2ccc3nccc(-c4ccnnc4)c3c2)cc1NS(=O)(=O)c1ccc(F)cc1F [Omipalisib]
Method in brief: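 For viability, nuclei in each treated well were divided by nuclei in vehicle wells and the median across plates was taken. Lung cancer cell lines in 1536-well plates were pinned with five library-drug doses (not always all listed) spaced by √10, cultured 5 days without medium change, and imaged at 4× after Hoechst staining, with plates passing only at control CV below 25% and at least one doubling.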

Omipalisib + Bortezomib = compound: COc1ncc(-c2ccc3nccc(-c4ccnnc4)c3c2)cc1NS(=O)(=O)c1ccc(F)cc1F [Omipalisib] + CC(C)C[C@H](NC(=O)[C@H](Cc1ccccc1)NC(=O)c1cnccn1)B(O)O [Bortezomib] (partner 0.002 µM)
Method in brief: as §1

Omipalisib + Vorinostat = compound: COc1ncc(-c2ccc3nccc(-c4ccnnc4)c3c2)cc1NS(=O)(=O)c1ccc(F)cc1F [Omipalisib] + O=C(CCCCCCC(=O)Nc1ccccc1)NO [Vorinostat] (partner 1 µM)
Method in brief: as §1

| Cell Line | relative viability (Omipalisib + Olaparib; first compound 0.0003 µM) | relative viability (Omipalisib + Olaparib; first compound 0.003 µM) | relative viability (Omipalisib + Olaparib; first compound 0.03 µM) | relative viability (Omipalisib + Pictilisib; first compound 0.0003 µM) | relative viability (Omipalisib + Pictilisib; first compound 0.003 µM) | relative viability (Omipalisib + Pictilisib; first compound 0.03 µM) | relative viability (Omipalisib + Lapatinib; first compound 0.0003 µM) | relative viability (Omipalisib + Lapatinib; first compound 0.003 µM) | relative viability (Omipalisib + Lapatinib; first compound 0.03 µM) | relative viability (Omipalisib + Foretinib; first compound 0.0003 µM) | relative viability (Omipalisib + Foretinib; first compound 0.003 µM) | relative viability (Omipalisib + Foretinib; first compound 0.03 µM) | relative viability (Omipalisib + Linsitinib; first compound 0.0003 µM) | relative viability (Omipalisib + Linsitinib; first compound 0.003 µM) | relative viability (Omipalisib + Linsitinib; first compound 0.03 µM) | relative viability (Omipalisib + Phenformin; first compound 0.0003 µM) | relative viability (Omipalisib + Phenformin; first compound 0.003 µM) | relative viability (Omipalisib + Phenformin; first compound 0.03 µM) | relative viability (Omipalisib + Crizotinib; first compound 0.0003 µM) | relative viability (Omipalisib + Crizotinib; first compound 0.003 µM) | relative viability (Omipalisib + Crizotinib; first compound 0.03 µM) | relative viability (Omipalisib + Navitoclax; first compound 0.0003 µM) | relative viability (Omipalisib + Navitoclax; first compound 0.003 µM) | relative viability (Omipalisib + Navitoclax; first compound 0.03 µM) | relative viability (Omipalisib + Alpelisib; first compound 0.0003 µM) | relative viability (Omipalisib + Alpelisib; first compound 0.003 µM) | relative viability (Omipalisib + Alpelisib; first compound 0.03 µM) | relative viability (Omipalisib + Decitabine; first compound 0.0003 µM) | relative viability (Omipalisib + Decitabine; first compound 0.003 µM) | relative viability (Omipalisib + Decitabine; first compound 0.03 µM) | relative viability (Omipalisib; 0.0003 µM) | relative viability (Omipalisib; 0.003 µM) | relative viability (Omipalisib; 0.03 µM) | relative viability (Omipalisib + Bortezomib; first compound 0.0003 µM) | relative viability (Omipalisib + Bortezomib; first compound 0.003 µM) | relative viability (Omipalisib + Bortezomib; first compound 0.03 µM) | relative viability (Omipalisib + Vorinostat; first compound 0.0003 µM) | relative viability (Omipalisib + Vorinostat; first compound 0.003 µM) | relative viability (Omipalisib + Vorinostat; first compound 0.03 µM) |
| --- | --- | --- | --- | --- | --- | --- | --- | --- | --- | --- | --- | --- | --- | --- | --- | --- | --- | --- | --- | --- | --- | --- | --- | --- | --- | --- | --- | --- | --- | --- | --- | --- | --- | --- | --- | --- | --- | --- | --- |
| A549 | 0.206 | 0.174 | 0.0441 | 0.457 | 0.454 | 0.254 | 0.912 | 0.715 | 0.227 | 0.892 | 0.838 | 0.319 | 0.438 | 0.421 | 0.218 | 0.157 | 0.113 | 0.0802 | 0.64 | 0.531 | 0.139 | 1.07 | 0.91 | 0.437 | 0.665 | 0.55 | 0.179 | 0.304 | 0.224 | 0.176 | 0.923 | 0.625 | 0.323 | – | – | – | – | – | – |
| Calu-6 | 0.658 | 0.625 | 0.542 | 0.996 | 0.879 | 0.775 | 1.05 | 1 | 0.795 | 0.894 | 0.844 | 0.754 | 0.842 | 0.931 | 0.815 | – | – | – | 0.904 | 0.813 | 0.681 | 0.882 | 0.848 | 0.452 | 0.889 | 0.864 | 0.755 | – | – | – | 1.09 | 0.986 | 0.861 | 0.982 | 0.951 | 0.865 | – | – | – |
| EBC-1 | 0.67 | 0.57 | 0.193 | 0.428 | 0.395 | 0.191 | 0.211 | 0.216 | 0.202 | 0.114 | 0.102 | 0.0896 | 0.822 | 0.521 | 0.405 | – | – | – | 0.218 | 0.183 | 0.212 | 0.337 | 0.243 | 0.137 | 0.906 | 0.692 | 0.259 | – | – | – | 0.957 | 0.821 | 0.325 | 0.605 | 0.549 | 0.263 | – | – | – |
| IA-LM | 0.903 | 0.85 | 0.602 | 0.45 | 0.317 | 0.197 | 0.95 | 0.703 | 0.251 | 1.27 | 0.997 | 0.683 | 0.636 | 0.571 | 0.243 | – | – | – | 0.906 | 0.682 | 0.288 | 0.92 | 0.847 | 0.251 | 0.785 | 0.793 | 0.373 | – | – | – | 0.888 | 0.764 | 0.355 | 1.01 | 0.818 | 0.258 | 0.873 | 0.916 | 0.25 |
